The values that follow come from patent publication US9303042B2, “Triazolothienopyrimidine compound inhibitors of urea transporters and methods of using inhibitors” (The Regents of the University of California, priority 2012, dated 2016).

Data set [1] deals with MDCK cells. Nature of the data set: MTT cytotoxicity assay. The data set is classed as cell-based, canine. The following applies: up to 10 μM, 24 h. On the technique in general: Tetrazolium assays rely on reduction of a dye to a coloured formazan, in cell work by metabolically active cells.
Data set [2] addresses T1, UT-B (Mus musculus, UniProt Q8VHL0).
T1 sequence (Q8VHL0 1-384): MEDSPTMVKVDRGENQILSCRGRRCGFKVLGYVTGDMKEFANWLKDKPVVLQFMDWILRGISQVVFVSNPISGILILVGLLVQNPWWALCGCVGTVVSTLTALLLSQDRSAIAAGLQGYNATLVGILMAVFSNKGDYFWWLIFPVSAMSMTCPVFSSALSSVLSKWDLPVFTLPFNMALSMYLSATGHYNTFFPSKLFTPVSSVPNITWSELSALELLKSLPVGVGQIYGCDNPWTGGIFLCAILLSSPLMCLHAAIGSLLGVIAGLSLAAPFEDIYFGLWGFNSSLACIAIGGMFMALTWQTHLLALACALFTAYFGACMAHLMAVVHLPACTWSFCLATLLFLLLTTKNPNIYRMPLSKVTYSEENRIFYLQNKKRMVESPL
As to the kind of experiment: Erythrocyte lysis assay of UT-B inhibition. Format: cell-based. On the set-up: Screening was performed using mouse erythrocytes, which strongly express UT-B; endogenous in cells; host or cells: erythrocytes in whole blood of wild-type CD1 mice. The following applies: read-out: IC50. In a few lines:
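Mouse erythrocytes (expressing UT-B and AQP1) subjected to an outward acetamide gradient; UT-B inhibition blocks acetamide efflux, causing swelling and lysis. Lysis quantified by absorbance at 710 nm within 5 min of hypo-osmolar shock.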

Data set [3] addresses T2, CFTR (Homo sapiens, UniProt P13569).
T2 construct: expressed in transfected cells
Nature of the data set: CFTR chloride conductance by short-circuit current. The data set is classed as cell-based. As to conditions: 10 μM, forskolin-activated.

Data set [4] relates to mice. Nature of the data set: Urinary concentration in mice. The data set is classed as in vivo, mouse. As to conditions: 1 week high-protein diet, 300 μg.
Data set [5] concerns the target T3, human UT-B (Homo sapiens, UniProt Q13336).
T3 construct: endogenous in cells; host or cells: erythrocytes in human venous whole blood
T3 sequence (Q13336 1-389): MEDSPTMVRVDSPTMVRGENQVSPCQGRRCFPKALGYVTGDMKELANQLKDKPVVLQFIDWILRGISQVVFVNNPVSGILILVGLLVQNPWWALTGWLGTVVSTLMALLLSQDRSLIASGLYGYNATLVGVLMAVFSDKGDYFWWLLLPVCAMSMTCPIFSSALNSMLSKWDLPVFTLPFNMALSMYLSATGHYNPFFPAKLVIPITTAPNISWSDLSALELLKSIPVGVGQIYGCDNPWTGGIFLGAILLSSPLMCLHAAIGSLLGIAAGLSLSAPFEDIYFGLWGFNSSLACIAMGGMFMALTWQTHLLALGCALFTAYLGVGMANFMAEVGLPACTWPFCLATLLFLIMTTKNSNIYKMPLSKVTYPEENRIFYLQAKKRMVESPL
As to the kind of experiment: Stopped-flow light scattering assay of erythrocyte urea transport, human erythrocytes. Format: cell-based. The following applies: urea influx, 100 mM inwardly directed urea gradient. The procedure: Erythrocyte urea and water permeabilities were measured by stopped-flow light scattering using a Hi-Tech Sf-51 instrument (Wiltshire, UK). For measurement of urea permeability, dilutions of whole blood (mouse or human) in PBS (hematocrit ˜0.5%) were incubated with test compounds for 5 min and then subjected to a 100-mM inwardly directed urea gradient. After an initial osmotic shrinking phase, the kinetics of increasing cell volume caused by urea influx was measured as the time-course of 90° scattered light intensity at 530 nm, with increasing cell volume producing reduced scattered light intensity. Urea permeability and percentage inhibition were computed as described (see, e.g., Levin et al., FASEB J. supra, 2007)). In some experiments, different urea gradients (25-200 mM) were used, or inhibitor was added only to the erythrocyte-containing or urea-containing solutions. […] Osmotic water permeability was measured using a 100 mM gradient of sucrose.
UT-B inhibition potency was assayed quantitatively by stopped-flow light scattering from the kinetics of urea influx in response to an inwardly directed urea gradient (see Materials and Methods above). […]
Measurements were done using a Hi-Tech Sf-51 instrument (Wiltshire, UK). […] The kinetics of increasing cell volume caused by urea influx was measured as the time-course of 90° scattered light intensity at 530 nm. […]

Data set [6] concerns the target T4, mouse UT-B (Mus musculus, UniProt Q8VHL0).
T4 construct: Screening was performed using mouse erythrocytes, which strongly express UT-B; endogenous in cells; host or cells: erythrocytes in whole blood of wild-type CD1 mice
T4 sequence (Q8VHL0 1-384): T1 sequence (Q8VHL0 1-384)
Nature of the data set: Stopped-flow light scattering assay of erythrocyte urea transport, mouse erythrocytes. The data set is classed as cell-based. On the procedure: Erythrocyte urea and water permeabilities were measured by stopped-flow light scattering using a Hi-Tech Sf-51 instrument (Wiltshire, UK). For measurement of urea permeability, dilutions of whole blood (mouse or human) in PBS (hematocrit ˜0.5%) were incubated with test compounds for 5 min and then subjected to a 100-mM inwardly directed urea gradient. After an initial osmotic shrinking phase, the kinetics of increasing cell volume caused by urea influx was measured as the time-course of 90° scattered light intensity at 530 nm, with increasing cell volume producing reduced scattered light intensity. Urea permeability and percentage inhibition were computed as described (see, e.g., Levin et al., FASEB J. supra, 2007)). In some experiments, different urea gradients (25-200 mM) were used, or inhibitor was added only to the erythrocyte-containing or urea-containing solutions. In some experiments an outwardly directed urea gradient was used in which erythrocytes were incubated for 30 min with PBS containing specified urea and mixed in the stopped-flow apparatus with PBS. In reversibility experiments, erythrocytes were incubated for 30 min with inhibitor, washed three times to remove inhibitor, and urea transport assayed. Osmotic water permeability was measured using a 100 mM gradient of sucrose.
UT-B inhibition potency was assayed quantitatively by stopped-flow light scattering from the kinetics of urea influx in response to an inwardly directed urea gradient (see Materials and Methods above). Rapid mixing of an erythrocyte suspension with an equal volume of a hyperosmolar, urea-containing solution to give a 100 mM inwardly directly urea gradient produced rapid cell shrinking due to osmotic water efflux, followed by cell swelling as a consequence of urea (and water) influx.
Measurements were done using a Hi-Tech Sf-51 instrument (Wiltshire, UK). Whole blood (mouse or human) was diluted in PBS (hematocrit approximately 0.5%), incubated with inhibitor for 5 min and then subjected to a 100-mM inwardly directed urea gradient. The kinetics of increasing cell volume caused by urea influx was measured as the time-course of 90° scattered light intensity at 530 nm. Urea permeability and percentage inhibition were computed as described (see, e.g., Levin et al., supra 2007).

Like-named read-outs stand apart in the source and are kept apart here.

T2 sequence (P13569 whole entry): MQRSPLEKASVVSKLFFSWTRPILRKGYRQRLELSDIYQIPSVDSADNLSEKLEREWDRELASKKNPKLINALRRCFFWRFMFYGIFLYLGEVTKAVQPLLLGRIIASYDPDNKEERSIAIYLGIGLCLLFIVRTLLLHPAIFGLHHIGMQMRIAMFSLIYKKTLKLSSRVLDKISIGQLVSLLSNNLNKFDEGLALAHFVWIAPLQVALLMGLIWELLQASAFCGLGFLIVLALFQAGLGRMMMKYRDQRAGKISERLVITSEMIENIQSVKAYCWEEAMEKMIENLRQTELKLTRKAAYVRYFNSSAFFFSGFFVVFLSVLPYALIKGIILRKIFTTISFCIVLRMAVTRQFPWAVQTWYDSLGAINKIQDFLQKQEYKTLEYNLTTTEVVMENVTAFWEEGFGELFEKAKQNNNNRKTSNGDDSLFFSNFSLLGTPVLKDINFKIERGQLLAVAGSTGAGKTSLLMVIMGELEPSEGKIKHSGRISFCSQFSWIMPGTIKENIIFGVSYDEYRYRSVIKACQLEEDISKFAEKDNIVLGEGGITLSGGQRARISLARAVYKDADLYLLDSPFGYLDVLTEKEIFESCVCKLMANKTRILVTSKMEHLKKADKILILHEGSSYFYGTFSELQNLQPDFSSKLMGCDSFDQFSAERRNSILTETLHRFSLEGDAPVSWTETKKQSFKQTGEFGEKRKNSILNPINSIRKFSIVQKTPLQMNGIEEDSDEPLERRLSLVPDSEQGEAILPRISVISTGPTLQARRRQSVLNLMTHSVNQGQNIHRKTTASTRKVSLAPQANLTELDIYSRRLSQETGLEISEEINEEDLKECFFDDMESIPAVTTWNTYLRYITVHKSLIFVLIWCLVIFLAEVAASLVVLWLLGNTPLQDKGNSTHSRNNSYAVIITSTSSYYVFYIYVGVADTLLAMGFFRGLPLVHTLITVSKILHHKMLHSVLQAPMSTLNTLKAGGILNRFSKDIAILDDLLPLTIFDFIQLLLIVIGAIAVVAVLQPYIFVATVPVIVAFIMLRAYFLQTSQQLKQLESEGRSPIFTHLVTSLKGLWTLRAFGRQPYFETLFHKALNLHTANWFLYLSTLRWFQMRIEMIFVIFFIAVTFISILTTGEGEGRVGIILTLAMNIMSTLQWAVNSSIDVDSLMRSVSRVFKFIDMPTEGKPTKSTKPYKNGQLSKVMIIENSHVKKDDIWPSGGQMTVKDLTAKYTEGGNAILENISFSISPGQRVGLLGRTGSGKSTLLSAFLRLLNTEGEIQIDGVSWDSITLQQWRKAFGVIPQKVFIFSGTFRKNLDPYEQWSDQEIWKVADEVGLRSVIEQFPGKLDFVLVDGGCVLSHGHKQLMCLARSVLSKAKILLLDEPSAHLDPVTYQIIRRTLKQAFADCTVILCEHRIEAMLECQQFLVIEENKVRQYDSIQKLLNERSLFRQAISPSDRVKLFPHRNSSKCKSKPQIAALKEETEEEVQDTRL

The IC50 is the concentration that gives 50% inhibition. A word on the inhibition: it is the share of the control response that was lost under treatment. The low end stands for a response near the control, the high end for a response far below the control. For the compound `CCc1ccc(S(=O)(=O)c2nnn3c2nc(NCc2cccs2)c2sccc23)cc1` [UTBinh-14, [3-(4-Ethyl-benzenesulfonyl)-thieno[2,3-e][1,2,3]triazolo[1,5-a]pyrimidin-5-yl]-thiophen-2-ylmethylamine], in data set [1], the cytotoxicity result is listed as “no cytotoxicity”. Further, the IC50 in data set [2] (Table 2, synthesized inhibitors, red blood cell lysis assay (n = 3), single-site saturation model) amounted to 11 nM; in data set [2] (erythrocyte lysis assay), 22 nM; in data set [5], 10.3 nM; in data set [6] (erythrocytes pre-loaded with 100 mM urea, mixed with urea-free PBS, read-out: IC50 urea efflux) it was 26.7 nM; in data set [6] (urea influx, 100 mM inwardly directed urea gradient, read-out: IC50 for mouse UT-B), 25.1 nM. Besides, the “inhibition of CFTR chloride conductance” value in data set [3] is “no significant inhibition”. In addition, in data set [4], the “effect on dDAVP-stimulated urinary concentration, high-protein diet” value is reported as “robust effect”. In addition, the “mechanism of UT-B inhibition vs urea” value in data set [6] (0 and 50 nM, urea gradient varied) is “competitive”. The “reduction of urea transport” value in data set [6] (100 nM, mouse erythrocytes) is listed as “approximately 75%”. In addition, in data set [6] (100 nM, washout), the “reversibility of UT-B inhibition” value is given as “reversible”. In data set [6] (1 μM), this compound came in with an inhibition at 1 µM of around 100%. The “urea transport in UT-B null erythrocytes” value in data set [6] (erythrocytes from UT-B knockout mice) is given as “did not inhibit”.
